# Measured values as given in paper PMC7157241, “Phenotypic Drug Discovery for Human African Trypanosomiasis: A Powerful Approach” (Tropical Medicine and Infectious Disease, 2020).
# Where two headings read alike, the source gives them in different places.
# Assays:
# [1] = Mammalian cell cytotoxicity assay (AlamarBlue, 48 h); format: cell-based; conditions: human
# Experimental: Compounds were tested for cytotoxicity against CRL-8155 cells (human lymphoblasts). Cells were grown in culture with serial dilutions of compounds for 48 h and cytotoxicity was assayed using AlamarBlue (Life Technologies, Carlsbad, California CA, USA).
# [2] = Brain permeability studies in mice (brain to plasma ratio); format: in vivo, mouse; conditions: for Kp at 1 h / Kp at 60 min: 5 mg/kg, mouse; for Kp at 60 min: read-out: B/P Ratio (Mouse)
# Experimental: Test compounds were injected (ip) at 5 mg/kg to three mice in a vehicle consisting of DMSO (5%), Tween 80 (7%), and EtOH (3%) in physiological saline (0.9%) solution [8]. At 1 h post injection, blood was collected, and plasma was separated by centrifugation. Simultaneously, the brain was removed and homogenized in acetonitrile. Concentrations of compound in the plasma and brain were determined via liquid chromatography/tandem mass spectrometry. Calculations of brain levels accounted for 3% volume/weight of blood in the brain.
# The long-term goal of the project was to develop a drug for treatment of HAT including late-stage disease involving the central nervous system. […] To assess this, the sixteen hit compounds were injected […] and mice were sacrificed at 60 min (n = 3 mice) for the simultaneous collection of plasma and whole brains for the quantification of compound concentrations. Eleven compounds (1–10, 12) had brain levels of at least 25% of plasma levels and were considered candidates for development. One compound (11) had modest brain permeability of 9%, but was included for further chemistry despite this marginal activity. Four compounds (13–15, 17) had minimal concentrations in the brain (< 2% of plasma levels) and were no longer pursued.
# [3] = test system: T. brucei brucei (strain BF427); assay: In vitro parasite growth arrest assay (AlamarBlue); format: cell-based, Trypanosoma brucei brucei
# Experimental: Follow up compounds were tested for antiparasitic activity on T. brucei brucei (strain BF427). Parasites were tested in triplicate in the presence of serial dilutions of compound, and growth was quantified with AlamarBlue.
# [4] = Single dose oral pharmacokinetic study in mice; format: in vivo; conditions: mouse, oral gavage 50 mg/kg
# Experimental: Test compounds were administered to mice by oral gavage followed by blood sampling at intervals of 30, 60, 120, 240, 360, 480, and 1440 min [5, 7]. Compounds were dosed orally at 50 mg/kg in 0.2 mL of dosing solution (7% Tween 80, 3% ethanol, 5% DMSO, 0.9% saline). Experiments were performed with groups of three mice per compound as published. Plasma was separated and extracted with acetonitrile for measurements of the compound concentrations by liquid chromatography/tandem mass spectrometry.
# New compounds had T. brucei EC50, mammalian host cell cytotoxicity (CC50), and aqueous solubility assayed per our screening cascade (Figure 2). The cut-off values for further advancement are shown. […] The screening results were continuously reviewed by the chemistry group to define structure activity relationships (SAR). […] Mice were administered compounds by oral gavage at 50 mg/kg and whole blood samples were collected on blotting cards at serial time points. The parameters of maximum blood concentration (Cmax) and the concentration of compound integrated over time (area under curve, AUC) were of primary interest. The general rule was to attain plasma concentrations 10 times above the T. brucei EC50 value for at least eight hours. […]
# [5] = Mouse liver microsome stability; conditions: for half-life: mouse, liver microsomes
# [6] = test system: T. b. brucei (strain TREU667); parameters: method as in PMID 27992217; conditions: cited from earlier work
# [7] = microsomes
# [8] = Human microsome stability; format: in vitro ADME; conditions: microsomes, Figure 3, read-out: Human microsome t½
# [9] = Brain permeability studies in mice (brain to plasma ratio); format: in vivo; conditions: mouse, 5 mg/kg
# [10] = test system: T. b. brucei (strain TREU667); assay: Anti-parasite efficacy in mice (chronic model); format: in vivo, mouse; conditions: chronic infection model (unpublished)
# Experimental: Groups of six to eight mice were infected with 1 × 10^4 T. b. brucei (strain TREU667) to establish a chronic infection. Treatment began on day 21 post-infection, and mice received 50 mg/kg test compound orally twice per day for 10 days (total of 20 doses) in a 200 μL volume of vehicle. A control group received the vehicle with no compound and another control group received a single intraperitoneal dose of diminazene aceturate at 10 mg/kg on day 21. […] After dosing, parasitemia was monitored via microscopic examination of tail blood slides until 180 days post-infection. Mice were removed from the experiment when parasites were detected in the blood.
# [11] = test system: T. brucei rhodesiense STIB 900 strain; conditions: acute infection model; cited from earlier work
# [12] = lymphocytic cell line CRL-8155, read-out: Mammalian CC50
# [13] = in vivo, Figures 4 and 5, read-out: Brain:Plasma ratio
# [14] = in vivo, brain to plasma ratio at 60 min following IP dose
# [15] = Trypanosoma brucei, Figure 3, Scaffold 1 optimization, read-out: T. brucei EC50
# [16] = brain and plasma, intraperitoneal, Figure 3, read-out: Brain:Plasma
# [17] = CRL-8155 cells (lymphoblasts), Figure 3, Scaffold 1 optimization, read-out: CC50
# [18] = Trypanosoma brucei, selected hit compounds, Table 1, read-out: T. brucei EC50
# [19] = CRL-8155 cells (lymphoblasts), lymphocytic cell line CRL-8155, read-out: Mammalian CC50
# [20] = brain and plasma, brain to plasma ratio at 60 min following IP dose
# [21] = Trypanosoma brucei, Figures 4 and 5, read-out: T. brucei EC50
smiles,measurement,setting,value
O=C(NCCc1nc(-c2ccccc2)cs1)c1ccccc1 [Scaffold 2],CC50 at 48 h,[1]; [12],> 50000 nM
same,Kp at 1 h,[2]; [13],0.3
same,Kp at 60 min,[2]; [14],0.3
O=C(Nc1ccc(F)c(-c2nc3cc(-c4ccccc4)cnc3[nH]2)c1)N1CCCC1 [HB-175],EC50,[3]; [15],4 nM
same,Kp at 1 h,[2]; [16],0.04
same,AUC,[4],1236 µmol·min
O=C(Nc1ccc(Cl)c(-c2nc3cc(Br)cnc3[nH]2)c1)c1ccco1 [Site III: as shown],EC50,[3]; [15],50 nM
same,CC50 at 48 h,[1]; [17],200000 nM
same,half-life,[5],48 s
COc1cccc(C2N(c3ccccc3)N=C(C(C)=O)N2c2ccc(C)c(C)c2)c1OCc1ccccc1 (stereo not shown) [Scaffold 15],EC50,[3]; [18],1500 nM
same,CC50 at 48 h,[1]; [19],33000 nM
same,Kp at 60 min,[2]; [20],0
O=C(Nc1ccc2sc(-c3ccc(F)c(F)c3)nc2c1)N1CC[C@H](F)C1 [Scaffold 45DAP076],EC50,[3]; [21],35 nM
same,Kp at 1 h,[2]; [13],4
same,activity in the chronic T. brucei infection model,[6],curative activity
same,half-life,[5],> 3600 s
COc1ccc(-n2nc(C(=O)NCC(=O)N3CCCC(C)C3)c3ccccc3c2=O)cc1Cl (stereo not shown) [Scaffold 7],EC50,[3]; [18],657 nM
same,CC50 at 48 h,[1]; [19],> 50000 nM
same,Kp at 60 min,[2]; [20],0.587
O=C(c1ccco1)N(C(=O)c1ccco1)c1ccc(Cl)c(-c2nc3ncccc3o2)c1 [Site V: as shown],EC50,[3]; [15],100 nM
same,CC50 at 48 h,[1]; [17],86000 nM
same,half-life,[5],42 s
Cc1cc(C)c(NC(=O)c2cc(S(=O)(=O)N3CCOCC3)cn2C)c(C)c1 [Scaffold 13],EC50,[3]; [18],1000 nM
same,CC50 at 48 h,[1]; [19],> 100000 nM
same,Kp at 60 min,[2]; [20],0.02
O=c1c2ccccc2nc(SCc2cccnc2)n1Cc1ccco1 [Scaffold 3],EC50,[3]; [18],874 nM
same,CC50 at 48 h,[1]; [19],38000 nM
same,Kp at 60 min,[2]; [20],2.86
O=C(Nc1ccc(Cl)c(-c2nc3ncccc3o2)c1)N1CCCC1 [Site II: pyrrolidine],EC50,[3]; [15],80 nM
same,CC50 at 48 h,[1]; [17],73000 nM
same,half-life,[5],48 s
"N=C(N)c1ccc(OCCCCCOc2ccc(C(=N)N)cc2)cc1 [Pentamidine isothionate, reference compound]",EC50,"[3]; positive control included in each assay, read-out: EC50 of positive control",1.2 ± 0.3 nM
Cc1nn2c(NCCCO)c3c(nc2c1-c1cccs1)CCC3 [Scaffold 6],EC50,[3]; [18],307 nM
same,CC50 at 48 h,[1]; [19],> 100000 nM
same,Kp at 60 min,[2]; [20],0.727
O=C(CSc1nc2scc(-c3ccccc3)c2c(=O)n1-c1ccccc1)Nc1ccccc1F [Scaffold 16],EC50,[3]; [18],650 nM
same,CC50 at 48 h,[1]; [19],> 100000 nM
same,plasma and brain levels,[2]; 60-min time point,nearly undetectable plasma and brain levels
same,B/P Ratio (Mouse),[2]; brain to plasma ratio at 60 min following IP dose,No plasma exposure
O=C(Nc1ccc(Cl)c(-c2nc3ncccc3o2)c1)c1ccco1 [Scaffold 1],EC50,[3]; [15],220 nM
same,EC50,[3]; [18],218 nM
same,CC50 at 48 h,"[1]; Figure 3, Scaffold 1 optimization, read-out: CC50",50000 nM
same,CC50 at 48 h,[1]; [12],> 50000 nM
same,Kp at 60 min,[2]; [14],0.547
same,Mouse microsome t½,[7],48 s
CCn1cc(CN2CCCC(C(=O)Nc3ccc(-c4nc5ccccc5[nH]4)cc3)C2)cn1 (stereo not shown) [Scaffold 10],EC50,[3]; [18],2440 nM
same,Kp at 60 min,[2]; [20],0.224
Cc1nc(C)c(C(=O)Nc2ccc(F)c(-c3nc4ncc(-c5ccccc5Cl)cn4n3)c2)o1 [PN-302],CC50 at 48 h,[1]; [17],> 50000 nM
same,Kp at 1 h,[2]; [16],0.23
same,half-life,[8],> 1.5 h
same,AUC,[4],55901 µmol·min
same,half-life,[5],> 5400 s
O=c1nc(/C=C/c2cn(Cc3ccccc3F)c3ccccc23)cc(C(F)(F)F)[nH]1 [Scaffold 11],EC50,[3]; [18],3090 nM
same,Kp at 60 min,[2]; [20],0.09
same,Kp at 60 min,"[9]; brain and plasma, intraperitoneal, mice sacrificed at 60 min, n = 3, read-out: brain levels as percent of plasma levels",0.09
Fc1ccccc1C1C=C(c2cccnc2)Nc2nnnn21 (stereo not shown) [Scaffold 8],EC50,[3]; [18],214 nM
same,CC50 at 48 h,[1],14300 nM
same,Kp at 15 min,"[9]; in vivo, brain to plasma ratio at 15 min following IP dose (Scaffold 8), read-out: B/P Ratio (Mouse)",7.11
COc1ccc(CNC(=O)CN(c2cccc(C)c2C)S(=O)(=O)c2ccccc2)cc1 [Scaffold 12],EC50,[3]; [18],1700 nM
same,CC50 at 48 h,[1]; [19],> 100000 nM
same,Kp at 60 min,[2]; [20],0.267
COCCN1C(=O)c2ccccc2C(C(=O)Nc2ccc(Oc3ccccc3)cc2)C1c1ccc(F)cc1 (stereo not shown) [Scaffold 14],EC50,[3]; [18],708 nM
same,CC50 at 48 h,[1]; [19],> 100000 nM
same,Kp at 60 min,[2]; [20],0.01
O=C(Nc1ccc(F)c(-c2nc3ncccc3o2)c1)c1ccco1 [Site I: F],EC50,[3]; [15],80 nM
same,CC50 at 48 h,[1]; [17],99700 nM
same,half-life,[5],42 s
COc1ccc(-c2c(C#N)c(SCc3ccccc3)nc(C)c2C(=O)Nc2ccccc2)cc1 [Scaffold 17],EC50,[3]; [18],3500 nM
same,CC50 at 48 h,[1]; [19],> 100000 nM
same,Kp at 60 min,[2]; [20],0
COc1cc(N2C(=O)CN(Cc3ccc(F)cc3Cl)C2=S)ccc1N(C)C [BA-738],EC50,[3]; [21],1.9 nM
same,CC50 at 48 h,"[1]; CRL-8155 cells (lymphoblasts), Figure 5, read-out: Mammalian cell CC50",> 50000 nM
same,Kp at 1 h,"[2]; brain and plasma, intraperitoneal, Figures 4 and 5, read-out: Brain:Plasma ratio",1.68
same,cures in the chronic infection model,[10],20 % of mice
same,outcome in acute T. brucei infection in mice,[11],cured mice
same,Mouse liver microsome t½,[5]; Figures 4 and 5,660 s
